What all share (assay): NCI-60 cell line screen, 48 h
Test [1] deals with ACHN.
The subject of test [2] is CCRF-CEM.
Test [3] has as its system COLO 205.
The subject of test [4] is HCT-15.
In test [5] the test system is HOP-62.
In test [6] the test system is KM12.
Test [7] deals with LOX IMVI.
Test [8] has as its system MOLT-4.
In test [9] the test system is NCI-H460.
The test system of test [10] is OVCAR-3.
Test [11] has as its system OVCAR-5.
Test [12] has as its system OVCAR-8.
In test [13] the test system is SF-268.
Test [14] relates to SF-295.
The subject of test [15] is SK-MEL-2.
In test [16] the test system is SN12C.
The subject of test [17] is UACC-257.

Structures are written as SMILES.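 The compound was tested at five concentrations on cells cultured in 96-well plates, with a 48-hour exposure period. At the GI50, growth is halved.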 The source made the active and inactive calls. No stated cut-off is given here; in the data, active = GI50 up to about 1.1 µM and inactive = higher.

With `Cc1ccc(C(=O)N2CCCCC2)cc1/N=N/N(C)C`, the GI50 in test [1] was > 100 µM (inactive); in [2], > 100 µM (inactive); in test [3], > 100 µM (inactive); in test [4], > 100 µM; in [5], > 100 µM (inactive); in test [6] it was > 100 µM (inactive). Further, the GI50 in test [7], in test [8], in test [9], in test [10], in [11] and in test [12] was > 100 µM (inactive) each time. Besides, the GI50 in test [13], in test [14], in test [15], in test [16] and in test [17] was > 100 µM (inactive) throughout.

Take `Cc1nc(-n2nc(-c3ccccc3)cc2-c2ccccc2)sc1C(=O)/C=C/c1ccccc1`: the GI50 in test [1] was > 100 µM (inactive); in test [2], 72.9 µM (inactive); in test [3], > 100 µM (inactive); in [4], > 100 µM; in test [5], > 100 µM (inactive); in [6], 84.3 µM (inactive). In addition, the GI50 is > 100 µM (inactive) in test [7]; 31.8 µM (inactive) in [8]; > 100 µM (inactive) in [9]; 81.1 µM (inactive) in test [10]; > 100 µM (inactive) in test [11]; > 100 µM (inactive) in [12]. Besides, the GI50 in test [13], in [14], in test [15], in test [16] and in test [17] was > 100 µM (inactive) in each case.

Consider `O=C(O)c1c[nH]cc1C(=O)O`, for which the GI50 in test [2] is > 100 µM (inactive); in [3], > 100 µM (inactive); in test [4], > 100 µM; in test [5], > 100 µM (inactive); in test [6], > 100 µM (inactive); in test [7] it was > 100 µM (inactive). The GI50 in test [8], in [9], in test [10], in test [11], in [12] and in test [13] was > 100 µM (inactive) throughout. The GI50 in test [14], in [16] and in test [17] was > 100 µM (inactive) each time.

`CC(C)c1cccc(C(C)C)c1NC(=O)C(=O)C(C(=O)c1ccccc1-c1ccccc1)C1OC(=O)c2ccccc21` (stereo not drawn): the GI50 is 32.3 µM (inactive) in test [1]; 13.8 µM (inactive) in test [2]; 30.9 µM (inactive) in test [3]; 18.4 µM in test [4]; 16.7 µM (inactive) in test [6]; 14.2 µM (inactive) in test [7]. Moreover, the GI50 in [8] was 11.6 µM (inactive); in test [9], 15 µM (inactive); in test [11], 18.5 µM (inactive); in test [12], 13.7 µM (inactive); in test [13] it was 21.7 µM (inactive); in test [14], 16.6 µM (inactive). Moreover, the GI50 in test [15] was 14.9 µM (inactive); in test [16], 20.8 µM (inactive); in [17] it was 12.6 µM (inactive).

Consider `COC(=O)CCC(=O)Nc1cc(C)ccc1C`, for which the GI50 in [1], in [2], in test [3], in [5], in test [6] and in test [7] was > 100 µM (inactive) in each case. Besides, the GI50 in test [8], in [9], in test [10], in test [12], in [14] and in test [15] was > 100 µM (inactive) throughout. Also, the GI50 in test [16] and in test [17] was > 100 µM (inactive) each time.

Take `COc1cccc(NC(=S)Nn2c(C)nc3ccccc3c2=O)c1`: the GI50 in test [1] was > 100 µM (inactive); in [2], > 100 µM (inactive); in test [3], > 100 µM (inactive); in test [4], > 100 µM; in test [5], > 100 µM (inactive); in [6], > 100 µM (inactive). Moreover, the GI50 in test [7], in test [8], in [9], in test [11], in test [12] and in test [13] was > 100 µM (inactive) throughout. Besides, the GI50 in test [14], in test [15], in test [16] and in test [17] was > 100 µM (inactive) each time.

Take `NC(=O)N/N=C(\Cc1nc2ccc(C(=O)c3ccccc3)cc2nc1O)C(=O)Nc1ccc(Br)cc1`: the GI50 in test [1] was > 100 µM (inactive); in [2], > 100 µM (inactive); in test [4], > 100 µM; in test [5] it was > 100 µM (inactive); in test [6], > 100 µM (inactive); in test [7], > 100 µM (inactive). The GI50 in test [8], in test [9], in test [10], in [11], in [12] and in test [13] was > 100 µM (inactive) throughout. Further, the GI50 in test [14], in [15], in [16] and in [17] was > 100 µM (inactive) in each case.

Consider `COc1cc(/C=C(\OC(C)=O)c2ccc3c(c2)OCO3)cc(OC)c1OC`, for which the GI50 in test [1] was 17.9 µM (inactive); in test [2] it was 25.4 µM (inactive); in test [3] it was 19.9 µM (inactive); in [4] it was 16 µM; in [5] it was 20 µM (inactive); in test [6], 19 µM (inactive). Further, the GI50 in test [7] is 16.1 µM (inactive); in test [8], 13.3 µM (inactive); in test [9], 33 µM (inactive); in [10], 18.3 µM (inactive); in test [11] it was 24.5 µM (inactive); in test [12] it was 16.3 µM (inactive). The GI50 in test [13] was 20 µM (inactive); in test [14], 23.8 µM (inactive); in test [15], 22.8 µM (inactive); in [16], 20.2 µM (inactive); in test [17], 18.4 µM (inactive).

Turning to `CC1CC(=O)CC[C@@H]1OCc1ccccc1` (stereo partly drawn), the GI50 was > 100 µM (inactive) in test [1]; 53.8 µM (inactive) in test [2]; > 100 µM (inactive) in [3]; > 100 µM in test [4]; > 100 µM (inactive) in test [5]; > 100 µM (inactive) in test [6]. The GI50 in test [7] is > 100 µM (inactive); in [8], 54.3 µM (inactive); in test [9], > 100 µM (inactive); in [10], > 100 µM (inactive); in [11] it was > 100 µM (inactive); in test [12], > 100 µM (inactive). In addition, the GI50 in [13], in test [14], in test [15], in test [16] and in test [17] was > 100 µM (inactive) in each case.

As for `CCN(CC)CCNC(=O)c1cccc2cc3ccccc3nc12`, the GI50 in test [1] is 3.45 µM (inactive); in [2], 5.69 µM (inactive); in test [3] it was 4.44 µM (inactive); in test [4] it was 4.47 µM; in [5], 10.4 µM (inactive); in test [6], 8 µM (inactive). In addition, the GI50 was 5.57 µM (inactive) in test [7]; 2.96 µM (inactive) in test [8]; 2.88 µM (inactive) in [9]; 11.6 µM (inactive) in test [10]; 6.21 µM (inactive) in test [11]; 6 µM (inactive) in test [12]. For the same compound, the GI50 in [13] is 6.84 µM (inactive); in test [14] it was 7.23 µM (inactive); in test [15], 7.53 µM (inactive); in test [16], 5.18 µM (inactive).

With `OCc1ccc2[n+](c1)CCC1c3ccccc3NC21` (stereo not drawn), the GI50 in test [1] is > 300 µM (inactive); in [2], > 300 µM (inactive); in [3], > 300 µM (inactive); in test [4], > 300 µM; in test [5], > 300 µM (inactive); in test [6], > 300 µM (inactive). Moreover, the GI50 in [7] is > 300 µM (inactive); in test [8] it was > 300 µM (inactive); in test [9], > 300 µM (inactive); in test [10], 240 µM (inactive); in test [12] it was > 300 µM (inactive); in test [13], 167 µM (inactive). The GI50 in test [14] was > 300 µM (inactive); in [15] it was > 300 µM (inactive); in [16], > 300 µM (inactive); in test [17], 283 µM (inactive).

Consider `NNC(=O)C(=O)N/N=C(\CCCC(=O)Nc1ccc(Cl)cc1)CC(=O)c1ccc(F)cc1`, for which the GI50 in test [1] was 17.8 µM (inactive); in [2], > 100 µM (inactive); in test [3] it was > 100 µM (inactive); in test [5], > 100 µM (inactive); in test [6], > 100 µM (inactive); in test [7], 13.9 µM (inactive). The GI50 in test [8], in test [9], in test [10], in test [11], in [12] and in test [13] was > 100 µM (inactive) each time. The GI50 in test [14] was > 100 µM (inactive); in test [15], 15.7 µM (inactive); in test [16], > 100 µM (inactive); in [17] it was > 100 µM (inactive).

Consider `CC1CCC(=O)NCCCCC(=O)N1` (stereo not drawn), for which the GI50 in test [1], in test [2], in test [3], in test [5], in test [6] and in test [7] was > 100 µM (inactive) each time. Besides, the GI50 in test [8], in test [9], in [10], in test [11], in test [12] and in test [13] was > 100 µM (inactive) throughout. The GI50 in test [14], in test [15], in test [16] and in test [17] was > 100 µM (inactive) throughout.

For the origin of these results see ChEMBL document CHEMBL1201862, “PubChem BioAssay data set” (2004).
